# Experimental data as given in US9067894B1, “Compound, composition, and method of activating GIRK potassium channel and use of same for treating conditions of interest” (Vanderbilt University, priority 2013, dated 2015).
# Columns and labels:
# [1] = target: T1, GIRK2/3 (Homo sapiens, UniProt P48051+Q92806); experiment: Whole-cell voltage-clamp, GIRK2/3-expressing HEK-293 cells; assay type: cell-based; conditions: cell line GIRK2-3
# T1 construct: expressed in transfected cells; host or cells: HEK-293
# T1 sequence (P48051 1-423): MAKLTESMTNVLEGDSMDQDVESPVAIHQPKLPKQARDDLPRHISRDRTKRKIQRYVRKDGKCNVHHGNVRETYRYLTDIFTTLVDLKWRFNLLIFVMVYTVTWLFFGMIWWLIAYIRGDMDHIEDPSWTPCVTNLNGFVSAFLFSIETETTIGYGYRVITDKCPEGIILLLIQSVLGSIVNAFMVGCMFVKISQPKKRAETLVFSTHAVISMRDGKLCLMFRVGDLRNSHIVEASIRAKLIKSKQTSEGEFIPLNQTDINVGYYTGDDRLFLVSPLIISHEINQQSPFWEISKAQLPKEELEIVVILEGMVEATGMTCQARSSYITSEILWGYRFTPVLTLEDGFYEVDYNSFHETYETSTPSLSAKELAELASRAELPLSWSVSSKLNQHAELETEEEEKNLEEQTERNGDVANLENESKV
# T1 sequence (Q92806 1-393): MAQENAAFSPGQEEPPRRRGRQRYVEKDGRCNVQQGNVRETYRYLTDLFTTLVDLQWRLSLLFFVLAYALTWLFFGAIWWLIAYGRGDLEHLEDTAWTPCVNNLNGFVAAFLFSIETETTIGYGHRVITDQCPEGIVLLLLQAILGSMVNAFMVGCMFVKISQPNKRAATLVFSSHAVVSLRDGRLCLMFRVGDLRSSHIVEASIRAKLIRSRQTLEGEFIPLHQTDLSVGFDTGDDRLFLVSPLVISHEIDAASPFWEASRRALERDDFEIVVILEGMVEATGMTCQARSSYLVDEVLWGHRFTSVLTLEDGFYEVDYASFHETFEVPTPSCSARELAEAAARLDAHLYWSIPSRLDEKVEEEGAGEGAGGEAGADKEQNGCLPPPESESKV
# Excerpt: Cell Line Construction and Cell Culture. HEK-293 cells co-expressing human GIRK1/2 and rat mGlu8 were generated as previously described (Niswender et al., 2008). A HEK-293 cell line (ATCC, Manassas, Va.) expressing human GIRK1 and human GIRK2 was constructed by transfecting HEK-293 cells with GIRK1 and GIRK2 (Origene, Rockville, Md.) cloned into the pBudCE4.1 vector (Life Technologies, Carlsbad, Calif.) using FuGene 6 (Promega, Madison, Wis.) transfection reagent. […]
# A single-cell suspension of HEK-293 cells stably transfected with the appropriate ion channels were plated into TC-treated 35 mm polystyrene dishes at ˜15% confluence and incubated overnight in a 5% CO2 cell culture incubator at 37° C. […] Whole cell currents were recorded in 20K extracellular solution at −70 mV using a Pico 1 amplifier (Tecella, Foothill Ranch, Calif.) controlled by WINWCP 4.X (University of Strathclyde, Glasgow, Scotland, UK). […] One day after transfection, cells were plate into 35 mm polystyrene dishes, incubated and recorded as described above. […]
# Voltage-clamp data were analyzed by converting current amplitudes to current density by dividing by each cell's membrane capacitance estimated from capacitance compensation. […]
# [2] = test system: Nicotinic acetylcholine; experiment: Radioligand displacement (Ricerca), first nicotinic entry; assay type: binding, human; conditions: 10 μM; first Nicotinic acetylcholine line
# [3] = target: T2, Serotonin 5-HT1A (Homo sapiens, UniProt P08908); experiment: Radioligand displacement (Ricerca); assay type: binding
# T2 construct: Ricerca (contract laboratory that ran the panel)
# T2 sequence (P08908 whole entry): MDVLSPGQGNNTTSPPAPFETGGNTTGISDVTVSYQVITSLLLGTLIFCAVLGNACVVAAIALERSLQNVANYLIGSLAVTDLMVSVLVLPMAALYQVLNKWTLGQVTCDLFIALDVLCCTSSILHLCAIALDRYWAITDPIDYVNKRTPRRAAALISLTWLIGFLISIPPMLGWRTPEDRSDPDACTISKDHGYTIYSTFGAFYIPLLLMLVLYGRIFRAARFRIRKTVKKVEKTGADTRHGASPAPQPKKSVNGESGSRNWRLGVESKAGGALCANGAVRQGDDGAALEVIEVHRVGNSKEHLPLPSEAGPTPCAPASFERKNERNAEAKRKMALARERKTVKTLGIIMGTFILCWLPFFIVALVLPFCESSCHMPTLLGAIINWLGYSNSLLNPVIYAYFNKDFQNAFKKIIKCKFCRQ
smiles,measurement,setting,value
"Cc1cc(NC(=O)Nc2ccc(F)c(F)c2)n(-c2ccccc2)n1 [VU0456810, 1-(3,4-difluorophenyl)-3-(3-methyl-1-phenyl-1H-pyrazol-5-yl)urea]",EC50 Voltage Clamp,[1],Inactive
same,% Inhibition,[2],0%
same,inhibition at 10 µM,[3],0%
